Assay results reported in paper PMC5285354, “Cationic Net Charge and Counter Ion Type as Antimicrobial Activity Determinant Factors of Short Lipopeptides” (Frontiers in Microbiology, 2017).
In brackets after ≈: the same amount, converted by molar mass. Where two headings read alike, the source gives them in different places. Where a SMILES comes first, the peptide text is derived from it. The star is where a group is joined. Myristoyl = CCCCCCCCCCCCCC(=O)*; Lauroyl = CCCCCCCCCCCC(=O)*

Columns and labels:
Type in all cases: cell-based
[1] = tested on: Proteus vulgaris (PCM 2668); conditions: 24 h
[2] = tested on: Klebsiella pneumoniae (ATCC 700603); conditions: for MBC Klebsiella pneumoniae, lipopeptides without TFA counter ion / MIC Klebsiella pneumoniae / MIC Klebsiella pneumoniae, lipopeptides without TFA counter ion: ATCC 700603, 18 h; for MBC Klebsiella pneumoniae: ATCC 700603, 24 h
Summary of the method: (§1)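 MIC in μg/mL, read as the lowest lipopeptide level with no observable growth. Microbroth dilution followed CLSI guidance, using MH broth, 10^5 cfu/mL and 18 h at 37°C for bacterial strains, or Sabouraud Dextrose broth, 10^3 cfu/mL and 48 h at 25°C for yeasts.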

[3] = tested on: Staphylococcus aureus (ATCC 25923); conditions: for MBC Staphylococcus aureus, lipopeptides without TFA counter ion / MIC Staphylococcus aureus / MIC Staphylococcus aureus, lipopeptides without TFA counter ion: ATCC 25923, 18 h; for MBC Staphylococcus aureus: ATCC 25923, 24 h
Summary of the method: as §1

[4] = tested on: Enterococcus faecalis (ATCC 29212); conditions: for MBC Enterococcus fecalis, lipopeptides without TFA counter ion / MIC Enterococcus fecalis / MIC Enterococcus fecalis, lipopeptides without TFA counter ion: ATCC 29212, 18 h; for MBC Enterococcus fecalis: ATCC 29212, 24 h
Summary of the method: (§2)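 Lowest lipopeptide concentration (μg/mL) with no observable growth gave the MIC, alongside MBC/MFC, by CLSI microbroth dilution. Fungi: Sabouraud dextrose broth, 10^3 cfu/mL start, 25°C for 48 h; bacteria: MH broth, 10^5 cfu/mL, 37°C for 18 h. Run in triplicate, three separate days.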

[5] = tested on: Bacillus subtilis (ATCC 6633); conditions: for MIC Bacillus subtillis: ATCC 6633, 18 h; for MBC Bacillus subtillis: ATCC 6633, 24 h
Summary of the method: as §2

[6] = tested on: Escherichia coli (ATCC 25922); conditions: for MBC Escherichia coli, lipopeptides without TFA counter ion / MIC Escherichia coli / MIC Escherichia coli, lipopeptides without TFA counter ion: ATCC 25922, 18 h; for MBC Escherichia coli: ATCC 25922, 24 h
Summary of the method: as §1

[7] = tested on: Candida albicans (ATCC 10231); conditions: ATCC 10231, 48 h
Summary of the method: as §1

[8] = tested on: Candida tropicalis (PCM 2681); conditions: PCM 2681, 48 h
Summary of the method: as §1

[9] = tested on: Proteus vulgaris (PCM 2668); conditions: for MIC Proteus vulgaris: 18 h
Summary of the method: as §1

[10] = tested on: Aspergillus brasiliensis (ATCC 16404); conditions: ATCC 16404, 48 h
Summary of the method: as §2

[11] = tested on: Pseudomonas aeruginosa (ATCC 9027); conditions: ATCC 9027, 18 h
Summary of the method: as §1

[12] = tested on: Staphylococcus epidermidis (PCM 2118); conditions: for MIC Staphylococcus epidermidis: PCM 2118, 18 h; for MBC Staphylococcus epidermidis: PCM 2118, 24 h
Summary of the method: as §2

[13] = tested on: Pseudomonas aeruginosa (ATCC 9027); conditions: ATCC 9027, 24 h
[14] = tested on: Candida albicans (ATCC 10231)
[15] = tested on: human red blood cells; conditions: 1 h
Experimental: The hemolytic activity of the lipopeptides was determined by exposing human red blood cells (4% v/v) to tested compounds at graded concentrations. Red blood cells were obtained from a healthy donor. EDTA was used to prevent the blood clotting. The plasma was removed via centrifugation and the erythrocytes were washed three times with PBS. The red blood cells were suspended in PBS and incubated with different concentrations of lipopeptides at 37°C for 1 h and centrifuged for 5 min at 1000 × g. The supernatants were transferred to a sterile 96-well plate and hemoglobin release was measured with an Epoch microplate spectrophotometer (BioTek, USA) by recording the absorbance at 550 nm. A 0.1% Triton X-100 solution was used as the positive control (100% of hemolysis) and pure PBS as the negative (0% of hemolysis). Minimum hemolytic concentration (MHC) was taken as the lowest concentration which induced 10% of hemolysis.

Compound | MIC Klebsiella pneumoniae [2] [mg/L] | MBC Klebsiella pneumoniae [2] [mg/L] | MIC Staphylococcus aureus [3] [mg/L] | MBC Staphylococcus aureus [3] [mg/L] | MIC Enterococcus fecalis [4] [mg/L] | MBC Enterococcus fecalis [4] [mg/L] | MIC Bacillus subtillis [5] [mg/L] | MBC Bacillus subtillis [5] [mg/L] | MIC Escherichia coli [6] [mg/L] | MBC Escherichia coli [6] [mg/L] | MFC Candida albicans [7] [mg/L] | MIC Candida albicans [7] [mg/L] | MFC Candida tropicalis [8] [mg/L] | MIC Candida tropicalis [8] [mg/L] | MFC Aspergillus brasiliensis [10] [mg/L] | MIC Aspergillus brasiliensis [10] [mg/L] | MIC Pseudomonas aeruginosa [11] [mg/L] | MIC Staphylococcus epidermidis [12] [mg/L] | MBC Staphylococcus epidermidis [12] [mg/L] | MBC Pseudomonas aeruginosa [13] [mg/L] | further results
CCCCCCCCCCCCCC(=O)N[C@@H](CCCCN)C(=O)NCC(N)=O [C14-KG-NH2] (Myristoyl-Lys-Gly-NH2) | 32 (≈ 77.6 µM) | 32 (≈ 77.6 µM) | 32 (≈ 77.6 µM) | 32 (≈ 77.6 µM) | 32 (≈ 77.6 µM) | 32 (≈ 77.6 µM) | 16 (≈ 38.8 µM) | 16 (≈ 38.8 µM) | 64 (≈ 155 µM) | 64 (≈ 155 µM) | 128 (≈ 310 µM) | 128 (≈ 310 µM) | 256 (≈ 620 µM) | 256 (≈ 620 µM) | 128 (≈ 310 µM) | 128 (≈ 310 µM) | 32 (≈ 77.6 µM) | 16 (≈ 38.8 µM) | 16 (≈ 38.8 µM) | 64 (≈ 155 µM) | MBC Proteus vulgaris [1]: >512 mg/L; MBC Klebsiella pneumoniae, lipopeptides without TFA counter ion [2]: 64 mg/L (≈ 155 µM); MIC Klebsiella pneumoniae, lipopeptides without TFA counter ion [2]: 32 mg/L (≈ 77.6 µM); MBC Staphylococcus aureus, lipopeptides without TFA counter ion [3]: 32 mg/L (≈ 77.6 µM); MIC Staphylococcus aureus, lipopeptides without TFA counter ion [3]: 32 mg/L (≈ 77.6 µM); MBC Enterococcus fecalis, lipopeptides without TFA counter ion [4]: 32 mg/L (≈ 77.6 µM); MIC Enterococcus fecalis, lipopeptides without TFA counter ion [4]: 32 mg/L (≈ 77.6 µM); MBC Escherichia coli, lipopeptides without TFA counter ion [6]: 64 mg/L (≈ 155 µM); MIC Escherichia coli, lipopeptides without TFA counter ion [6]: 64 mg/L (≈ 155 µM); MIC Candida albicans, lipopeptides without TFA counter ion [7]: 256 mg/L (≈ 620 µM); MIC Proteus vulgaris [9]: >512 mg/L; MFC Candida albicans, lipopeptides without TFA counter ion [14]: 256 mg/L (≈ 620 µM)
CCCCCCCCCCCCCCCC(=O)N[C@@H](CCCCN)C(=O)N[C@@H](CCCCN)C(=O)N[C@@H](CCCCN)C(N)=O [C16-KKK-NH2] | 4 (≈ 6.25 µM) | 4 (≈ 6.25 µM) | 8 (≈ 12.5 µM) | 8 (≈ 12.5 µM) | 16 (≈ 25 µM) | 16 (≈ 25 µM) | 8 (≈ 12.5 µM) | 8 (≈ 12.5 µM) | 8 (≈ 12.5 µM) | 16 (≈ 25 µM) | 128 (≈ 200 µM) | 128 (≈ 200 µM) | 128 (≈ 200 µM) | 128 (≈ 200 µM) | 128 (≈ 200 µM) | 128 (≈ 200 µM) | 8 (≈ 12.5 µM) | 4 (≈ 6.25 µM) | 4 (≈ 6.25 µM) | 8 (≈ 12.5 µM) | MBC Proteus vulgaris [1]: >512 mg/L; MBC Klebsiella pneumoniae, lipopeptides without TFA counter ion [2]: 4 mg/L (≈ 6.25 µM); MIC Klebsiella pneumoniae, lipopeptides without TFA counter ion [2]: 4 mg/L (≈ 6.25 µM); MBC Staphylococcus aureus, lipopeptides without TFA counter ion [3]: 8 mg/L (≈ 12.5 µM); MIC Staphylococcus aureus, lipopeptides without TFA counter ion [3]: 4 mg/L (≈ 6.25 µM); MBC Enterococcus fecalis, lipopeptides without TFA counter ion [4]: 8 mg/L (≈ 12.5 µM); MIC Enterococcus fecalis, lipopeptides without TFA counter ion [4]: 8 mg/L (≈ 12.5 µM); MBC Escherichia coli, lipopeptides without TFA counter ion [6]: 8 mg/L (≈ 12.5 µM); MIC Escherichia coli, lipopeptides without TFA counter ion [6]: 4 mg/L (≈ 6.25 µM); MIC Candida albicans, lipopeptides without TFA counter ion [7]: 128 mg/L (≈ 200 µM); MIC Proteus vulgaris [9]: >512 mg/L; MFC Candida albicans, lipopeptides without TFA counter ion [14]: 128 mg/L (≈ 200 µM)
CCCCCCCCCCCCCCCC(=O)N[C@@H](CCCCN)C(=O)N[C@@H](CCCCN)C(N)=O [C16-KK-NH2] | 16 (≈ 31.3 µM) | 16 (≈ 31.3 µM) | 8 (≈ 15.6 µM) | 8 (≈ 15.6 µM) | 8 (≈ 15.6 µM) | 8 (≈ 15.6 µM) | 4 (≈ 7.82 µM) | 4 (≈ 7.82 µM) | 8 (≈ 15.6 µM) | 8 (≈ 15.6 µM) | 128 (≈ 250 µM) | 128 (≈ 250 µM) | 128 (≈ 250 µM) | 128 (≈ 250 µM) | 128 (≈ 250 µM) | 128 (≈ 250 µM) | 8 (≈ 15.6 µM) | 4 (≈ 7.82 µM) | 4 (≈ 7.82 µM) | 8 (≈ 15.6 µM) | MBC Proteus vulgaris [1]: >512 mg/L; MBC Klebsiella pneumoniae, lipopeptides without TFA counter ion [2]: 32 mg/L (≈ 62.5 µM); MIC Klebsiella pneumoniae, lipopeptides without TFA counter ion [2]: 16 mg/L (≈ 31.3 µM); MBC Staphylococcus aureus, lipopeptides without TFA counter ion [3]: 4 mg/L (≈ 7.82 µM); MIC Staphylococcus aureus, lipopeptides without TFA counter ion [3]: 4 mg/L (≈ 7.82 µM); MBC Enterococcus fecalis, lipopeptides without TFA counter ion [4]: 4 mg/L (≈ 7.82 µM); MIC Enterococcus fecalis, lipopeptides without TFA counter ion [4]: 4 mg/L (≈ 7.82 µM); MBC Escherichia coli, lipopeptides without TFA counter ion [6]: 4 mg/L (≈ 7.82 µM); MIC Escherichia coli, lipopeptides without TFA counter ion [6]: 4 mg/L (≈ 7.82 µM); MIC Candida albicans, lipopeptides without TFA counter ion [7]: 256 mg/L (≈ 500 µM); MIC Proteus vulgaris [9]: >512 mg/L; MFC Candida albicans, lipopeptides without TFA counter ion [14]: 256 mg/L (≈ 500 µM)
CCCCCCCCCCCC(=O)N[C@@H](CCCCN)C(=O)NCC(N)=O [C12-KG-NH2] (Lauroyl-Lys-Gly-NH2) | 256 (≈ 666 µM) | 512 (≈ 1330 µM) | 256 (≈ 666 µM) | 512 (≈ 1330 µM) | 256 (≈ 666 µM) | 256 (≈ 666 µM) | 128 (≈ 333 µM) | 256 (≈ 666 µM) | 256 (≈ 666 µM) | 512 (≈ 1330 µM) | 512 (≈ 1330 µM) | 512 (≈ 1330 µM) | 512 (≈ 1330 µM) | 512 (≈ 1330 µM) | 512 (≈ 1330 µM) | 256 (≈ 666 µM) | 256 (≈ 666 µM) | 128 (≈ 333 µM) | 128 (≈ 333 µM) | 512 (≈ 1330 µM) | Hemolysis HC10 (MHC), concentration of lipopeptide inducing 10% of hemolysis [15]: 1000 µg/mL; MBC Proteus vulgaris ([9]; PCM 2668, TFA salt, subculture on Mueller-Hinton II Agar, 24 h 37°C, triplicate): >2000 mg/L
